The results in this text go back to patent publication US7879861B2, “Combi-molecules having EGFR and DNA targeting properties” (priority 2005, dated 2011).

A word on the inhibition: it is the relative decrease from the control value, in per cent.

Data set [1] in a line: Chemical stability of combi-molecules. The format is physicochemical.
For a further data set, the system named is NIH3T3HER14 cells. Briefly: Growth factor-stimulated proliferation, SRB assay. The settings on record: 72 h. Format: cell-based, mouse. On the procedure: In vitro growth inhibition assay: To study the effect of the compounds on growth factor stimulated-proliferation, cells were grown to 70% of confluence in 48-well plates. They were subsequently washed twice with PBS, incubated in serum-free medium for 18 h and exposed to each drug+growth factors (EGF, TGFα, PDGF or serum) for 72 h. Cell growth was measured using the sulforhodamine B (SRB) assay (24). Briefly, following drug treatment, cells were fixed using 50 μl of cold trichloroacetic acid (50%) for 60 min at 4° C., washed five times with tap water, and stained for 30 min at room temperature with SRB (0.4%) and dissolved in acetic acid (0.5%). The plates were rinsed five times with 1% acetic acid and allowed to air dry. The resulting colored residue was dissolved in 200 μl of Tris base (10 mM), and the optical density read for each well at 450 nm using a Bio-Rad microplate reader (model 2550). […] Cell growth was measured using SRB assay as described previously.

The test system of the next data set is MDA-MB-468 cells. Kind of data set: Annexin V binding (apoptosis), flow cytometry. Format: cell-based, human. The procedure:
Annexin V Binding: Cells were grown in 6-well plates until confluence and then incubated with the compounds for 24 h, 48 and 72 h. The cells were then harvested, washed twice with PBS, and centrifuged. Cells (10^5) were treated with annexin V-FITC and propidium iodide (PI) using the Apoptosis Detection Kit (BD Bioscience Pharmingen, USA) and the supplier's protocol. Annexin V-FITC and PI binding were analyzed by flow cytometry. Data were collected using logarithmic amplification of both the FL1 (FITC) and FL2 (PI) channels. Quadrant analysis of co-ordinate dot plots was performed with CellQuest software. Unstained cells were used to adjust the photomultiplier voltage and for compensation setting adjustment in order to eliminate spectral overlap between the FL1 and FL2 signals.

For `ClCCNc1ccc2ncnc(Nc3cccc(Br)c3)c2c1` [ZR2002], the “chemical stability (in words)” value in data set [1] is “stable compound that does not self-alkylate”. Besides, the “EGF or TGFα-induced proliferation” value with NIH3T3HER14 cells was “selectively blocking”. Moreover, the inhibition at 1 µM in the data set with NIH3T3HER14 cells (Mus musculus, at 1 μM, read-out: inhibition of PDGF-stimulated growth) stood at 100%. The inhibition at 10 µM in the data set with NIH3T3HER14 cells (Mus musculus, at concentrations >10 μM, read-out: inhibition of serum-stimulated growth) is 100%. Besides, the inhibition at 0.1 µM in the data set with NIH3T3HER14 cells (Mus musculus, at concentrations as low at 0.1 μM, read-out: inhibition of EGF-stimulated growth) was 100%. The “concentration at which detectable levels of apoptosis start” value in the data set with MDA-MB-468 cells worked out at 5 µM.
